Measurements published in US8551980B2, “Substituted triazolopyridines” (Bayer Intellectual Property GmbH, priority 2009, dated 2013).

Target: T1, human kinase Mps-1 (Homo sapiens, UniProt P33981)
T1 construct: N-terminally GST-tagged human full length recombinant Mps-1 kinase; GST (N); purchased Invitrogen, Karslruhe, Germany PV4071
T1 sequence (P33981 1-857): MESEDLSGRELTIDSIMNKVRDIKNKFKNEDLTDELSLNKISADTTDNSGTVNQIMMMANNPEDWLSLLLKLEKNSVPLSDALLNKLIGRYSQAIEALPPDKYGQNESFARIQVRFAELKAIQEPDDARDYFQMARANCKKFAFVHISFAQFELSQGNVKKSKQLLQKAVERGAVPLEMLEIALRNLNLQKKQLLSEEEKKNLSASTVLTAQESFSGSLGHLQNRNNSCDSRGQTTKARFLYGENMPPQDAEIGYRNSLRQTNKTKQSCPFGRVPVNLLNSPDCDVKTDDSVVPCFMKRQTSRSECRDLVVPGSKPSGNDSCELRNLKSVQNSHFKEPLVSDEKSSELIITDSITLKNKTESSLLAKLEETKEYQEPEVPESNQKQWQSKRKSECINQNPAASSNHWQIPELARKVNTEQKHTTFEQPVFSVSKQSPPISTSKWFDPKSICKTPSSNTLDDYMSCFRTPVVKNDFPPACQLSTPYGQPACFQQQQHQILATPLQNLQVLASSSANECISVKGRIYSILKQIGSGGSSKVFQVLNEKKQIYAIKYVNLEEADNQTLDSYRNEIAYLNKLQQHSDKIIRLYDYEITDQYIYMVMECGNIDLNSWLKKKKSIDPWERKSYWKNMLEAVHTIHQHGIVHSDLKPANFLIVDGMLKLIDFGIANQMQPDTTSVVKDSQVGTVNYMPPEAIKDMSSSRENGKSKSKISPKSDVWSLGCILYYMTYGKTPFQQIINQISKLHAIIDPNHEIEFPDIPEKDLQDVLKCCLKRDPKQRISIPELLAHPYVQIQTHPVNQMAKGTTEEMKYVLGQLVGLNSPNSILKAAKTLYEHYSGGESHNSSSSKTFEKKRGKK
Assay: Mps-1 kinase assay (TR-FRET)
Format: biochemical
Conditions: N-terminally GST-tagged human full length recombinant Mps-1; 10 μM ATP; 1 μM peptide substrate; 60 min at 22° C.; read-out: MPS1 Inhibition, IC50 in M
Experimental: The human kinase Mps-1 phosphorylates a biotinylated substrate peptide. Detection of the phosphorylated product is achieved by time-resolved fluorescence resonance energy transfer (TR-FRET) from Europium-labelled anti-phospho-Serine/Threonine antibody as donor to streptavidin labelled with cross-linked allophycocyanin (SA-XLent) as acceptor. Compounds are tested for their inhibition of the kinase activity.
N-terminally GST-tagged human full length recombinant Mps-1 kinase (purchased from Invitrogen, Karslruhe, Germany, cat. no PV4071) was used. […]
The resulting mixture was incubated 1 h at 22° C. to allow the binding of the phosphorylated peptide to the anti-phospho(Ser/Thr)-Europium-antibody. Subsequently the amount of phosphorylated substrate was evaluated by measurement of the resonance energy transfer from the Europium-labelled anti-phospho(Ser/Thr) antibody to the Streptavidin-XLent. Therefore, the fluorescence emissions at 620 nm and 665 nm after excitation at 350 nm was measured in a Viewlux TR-FRET reader (PerkinElmer LAS, Rodgau-Jügesheim, Germany). The “blank-corrected normalized ratio” (a Viewlux specific readout, similar to the traditional ratio of the emissions at 665 nm and at 622 nm, in which blank and Eu-donor crosstalk are subtracted from the 665 nm signal before the ratio is calculated) was taken as the measure for the amount of phosphorylated substrate. […]

- IC50: 1.8 nM
SMILES: Cc1c(-c2ccc(NC(=O)Cc3ccccc3)cc2)ccc2nc(Nc3ccccc3C#N)nn12 [Example 1.1, N-(4-{2-[(2-cyanophenyl)amino]-5-methyl[1,2,4]triazolo[1,5-a]pyridin-6-yl}phenyl)-2-phenylacetamide]
